{
  "source": "paper PMC8618187",
  "about": "(Nanomaterials, 2021)",
  "key": {"[1]": {"experiment": "In vitro PTX release with kinetic modelling (with/without GSH)", "type": "physicochemical", "conditions": "without GSH", "protocol": "Glutathione (GSH)-triggered release was investigated in vitro from Ms, R-Ms, PR-Ms, and PT-R-Ms formulations (without GSH) and from PT-R-Ms in the presence of 20 mM GSH.\nRedox responsive multifunctional micelles remained indolent in the physiological environment and became activated when they reached a reductive environment, which is another approach for targeted site-specific delivery. As a proof-of-concept, glutathione (GSH)-triggered release (to mimic the redox tumor microenvironment) was investigated in vitro from Ms, R-Ms, PR-Ms, and PT-R-Ms formulations (without GSH) and from PT-R-Ms in the presence of 20 mM GSH. The controlled burst release was confirmed by applying kinetic models of drug release (zero-order, Higuchi, Korsmeyer–Peppas, and Hixon Crowell) to the different formulations, and the results are gathered in Table 2. The Korsmeyer–Peppas model was proven to be suitable to explain the release kinetics from the PT-R-Ms, which is a prerequisite for polymeric systems."}, "human macrophages": {"tested_on": "human macrophages", "experiment": "Biocompatibility against human macrophages (MTT)", "type": "cell-based", "conditions": "high concentrations", "protocol": "Biocompatibility studies of pure PTX, Ms, RMs, PR-Ms, and PT-R-Ms were performed against human macrophages. Ficoll-percoll gradient technique was used to isolate human macrophages. Ficoll solution was prepared by dissolving 5.6 g of ficoll in 9.5 mL deionized water and 5 mL gastrografin to achieve a density of 1.070 g/mL. The fresh human blood (10 cm^3) was diluted three times with Hanks buffer salt solution (HBSS), layered onto a percoll gradient and then centrifuged at 400× g for 5 min to isolate the macrophage layer. The separated cells were suspended in RPMI medium (10% FBS, 100 U/mL penicillin, 0.1 mg/mL streptomycin, and 25 mM HEPES) and incubated at 5% CO2. […] Normal cells were taken as negative controls, while cells treated with 1% Triton X were used as positive controls to investigate the viability."}, "HCT-116 cells [2]": {"tested_on": "HCT-116 cells", "experiment": "Cell apoptosis by flow cytometry (Annexin V FITC/PI)", "type": "cell-based, human", "set-up": "dose or concentration left out as unconfirmed", "conditions": "HCT-116, 48 h", "from_the_text": "After treatment, the cells were harvested and washed twice with cold PBS."}, "[3]": {"experiment": "Oral pharmacokinetics of PTX", "type": "in vivo, rats", "from_the_text": "Healthy female rats weighing 120–150 g were selected and fasted overnight with free access to water and were randomly distributed into four groups and each group had four rats (n = 4)."}, "[4]": {"experiment": "In vivo biodistribution (fluorescence of excised organs and tumors)", "set-up": "species or system rats", "conditions": "oral", "protocol": "The fluorotagged PT-R-Ms were given orally to rats by oral gavage. After 48 h, rats were sacrificed and their major organs were excised to investigate the formulation distribution within them. The fluorescence intensity of the excised organs (heart, liver, spleen, and kidney) was examined using the iBox Explorer2 (iBox® Explorer2 Imaging Microscope; UVP Ltd. The system was set on a 535/45 nm excitation filter and a 605/50 nm emission filter with the automated BioLite™ MultiSpectral Light Source. Images were taken at 0.17× magnification, and the intensity was kept at 6 using the 3.2 MP OptiChemi 610 camera (Vision Works® LS Acquisition, AnlyticJena, Jena, Germany). An analysis software was used to study the images."}, "rats [5]": {"tested_on": "rats", "conditions": "rat, in vivo, po, 20 mg/kg", "procedure": "(§1) Healthy, female rats weighing 150 g and aged 10–14 weeks were taken from the animal house. Rats were divided into 4 groups (n = 4) and kept under a standard condition of food and water in the controlled environment. […] The dose (20 mg/kg) was administered orally through oral gavage. […] After 14 days, the rats were sacrificed for blood and serum biochemistry and tissue histology studies [29].\n(§2) The blood from each rat was drawn through cardiac puncture into BD vacutainer blood collection tubes. […] The clear supernatant was carefully removed and stored at −20 °C. Liver function tests (LFTs) including alkaline phosphatase (ALP), serum glutamic-pyruvic transaminase (SGPT), serum glutamic-oxaloacetic transaminase (SGOT) and bilirubin, renal functions tests (RFTs) including urea and creatinine, serum electrolytes (Na, Mg, Ca, and P), glucose and total protein were analyzed using the serum.\n(§3) Changes in the organs weight were measured to evaluate the toxicity of tested formulations. The vital organs (heart, kidneys, liver, and spleen) were removed from the rats after being sacrificed, washed with normal saline, and then weighed individually. The weights of organs from treated groups were compared with a control group and body mass index was calculated using the following formula [30]: organ−body weight index (%)=organ weight/body weight×100%\n(§4) Vital organs (liver, kidney, heart, and spleen) were examined for toxicity and to notice any pathological changes [31]. The organs were stored in 10% formalin solution. A paraffin section (0.5 µm) was cut into the same size as the organ via a rotary microtome and was properly fixed. Tissue sections were then fixed onto glass slides followed by staining with hematoxylin and eosin periodic acid Schiff (PAS). The sections were examined under a microscope for any toxic effect produced by the redox and non-redox micelles."}, "in vitro": {"experiment": "in vitro", "conditions": "rat, pH 6.5", "procedure": "Briefly, the study was conducted on the intestine of healthy rats weighing between 250–300 g. The rats were sacrificed and the abdomen was opened with a middle incision. The intestine was immediately removed, thoroughly washed with Krebs ringer solution (pH 6.5), and cut into pieces of 4–5 cm. The intestine was everted by carefully passing a narrow glass rod from one end of the intestine and then gently rolling it on a glass rod. All the pieces were stored in an oxygenated Krebs ringer solution at 4 °C until further use. […] Each segment was tied at one end with a silk suture, and 1 mL of sample (1 mg/mL) was carefully filled in the sac using a hypodermic syringe and the other end was tied with a silk suture. […] All filled sacs were immersed in tubes filled with 10 mL of oxygenated Krebs solution and incubated at 37 °C under gentle mechanical shaking. The samples were collected at predefined times from the surrounding medium and replaced with the same amount of fresh solution. […] The apparent permeability was calculated using the following equation:Apparent permeability (µg/cm^2) = (concentration × volume)/mucosal surface area\nThe mucosal surface area was calculated assuming that the intestine is a cylinder by using the formula:Mucosal surface area (cm^2) = circumference (π × diameter) × length"}, "rats [6]": {"tested_on": "rats", "experiment": "Acute oral toxicity (OECD 425), serum biochemistry, histopathology", "conditions": "single oral dose of 20 mg of PTX/kg, after 14 days", "procedure": "as §1, §2, §3, §4"}, "HCT-116 cells [7]": {"tested_on": "HCT-116 cells", "experiment": "Cellular uptake of curcumin by fluorescence microscopy", "type": "cell-based, human", "conditions": "curcumin loaded into PT-R-Ms micelles, HCT-116, 0, 6, 12 h", "protocol": "To analyze the internalization of curcumin (a P-gP inhibitor) into tumor cells, HCT-116 tumor cells were used. Curcumin as a fluorescent probe was encapsulated within the core of PT-R-Ms micelles following a similar procedure to that mentioned earlier for PTX loaded micelles. The HCT-116 cells were seeded into 6 well plates at a density of 1 × 10^6 cells/well. After 24 h the cells became confluent and were incubated with curcumin-loaded PT-R-Ms for different time periods (0, 6, 12 h). Upon incubation, the medium was removed and the cells were washed with cold PBS. Subsequently, the uptake of curcumin was monitored by fluorescence microscopy (Evos® FL Cell Imaging System, Thermo Fisher Scientific, Waltham, MA, USA). Ex vivo assays based on the tumor tissue slice model were used to analyze the curcumin uptake by inhibition of P-gP efflux pump overexpressed on tumor cells, as reported earlier. Different slides of tumor tissue were prepared and stained with curcumin-loaded PT-R-Ms. Similarly, HCT-116 tumor tissue cells were incubated for different time intervals to monitor the uptake of curcumin."}, "[8]": {"conditions": "female, rat, plasma, oral gavage, 20 mg/kg"}},
  "note": "Like-named read-outs stand apart in the source and are kept apart here.",
  "data": [
    {"compound": "CC(=O)O[C@H]1C(=O)[C@@]2(C)[C@H]([C@H](OC(=O)c3ccccc3)[C@]3(O)C[C@H](OC(=O)[C@H](O)[C@@H](NC(=O)c4ccccc4)c4ccccc4)C(C)=C1C3(C)C)[C@]1(OC(C)=O)CO[C@@H]1C[C@@H]2O", "note": "[PTX, paclitaxel]", "values": [
      {"measurement": "Higuchi Model K0", "setting": "[1]", "result": 40.117},
      {"measurement": "Hixon Crowell Model K0", "setting": "[1]", "result": 0.190},
      {"measurement": "Korsmeyer–Peppas Model N", "setting": "[1]", "result": 0.701},
      {"measurement": "Zero Order K0", "setting": "[1]", "result": 21.01},
      {"measurement": "toxicity against human macrophages", "setting": "human macrophages", "result": "cytotoxic"},
      {"measurement": "percentage of apoptotic cells", "setting": "HCT-116 cells [2]", "result": "28.57 ± 0.06", "unit": "%"},
      {"measurement": "time above the minimum effective concentration / within the therapeutic window", "setting": "[3]; MEC 35 ng/mL, oral", "result": 2, "unit": "h"},
      {"measurement": "bioavailability", "setting": "[3]; female, rat, plasma, po, 20 mg/kg", "result": 7.5, "unit": "%"},
      {"measurement": "Cmax", "setting": "[3]; [8]", "result": "70.69 ± 0.14", "unit": "ng/mL"},
      {"measurement": "half-life", "setting": "[3]; [8]", "result": "32.9 ± 2.2", "unit": "h"},
      {"measurement": "AUC(0-t)", "setting": "[3]; female, rat, plasma, oral gavage, 20 mg/kg, read-out: AUC 0-96", "result": "4271 ± 8.4", "unit": "ng·h/mL"},
      {"measurement": "MRT last", "setting": "[3]; female, rat, plasma, oral gavage, 20 mg/kg, read-out: MRT 0-96", "result": "54.9 ± 2.7", "unit": "h"},
      {"measurement": "Tmax", "setting": "[3]; female, rat, plasma, oral gavage, 20 mg/kg, read-out: Tmax", "result": "4 ± 0.2", "unit": "h"},
      {"measurement": "Tmax", "setting": "[3]; oral gavage, 20 mg/kg", "result": 2, "unit": "h"},
      {"measurement": "biodistribution: liver", "setting": "[4]", "result": "significantly higher uptake in the liver"},
      {"measurement": "histopathological changes in the liver tissue", "setting": "rats [5]", "result": "cytoplasmic degeneration, necrosis, hemorrhage, and infiltration of inflammatory cells"},
      {"measurement": "histopathology of heart tissue", "setting": "rats [5]", "result": "lesions, myocarditis, and infiltration of inflammatory cells"},
      {"measurement": "histopathology of kidney tissue", "setting": "rats [5]", "result": "distorted glomeruli, dilated tubules, edema exudate, mild necrosis, and infiltration of inflammatory cells"},
      {"measurement": "histopathology of spleen tissue", "setting": "rats [5]", "result": "distorted lymphoid architecture"},
      {"measurement": "Papp A→B at 1 mg/mL", "setting": "in vitro", "result": "0.43 ± 0.2", "unit": "×10⁻⁶ cm/s"},
      {"measurement": "Papp B→A at 1 mg/mL", "setting": "in vitro", "result": "2.35 ± 0.2", "unit": "×10⁻⁶ cm/s"},
      {"measurement": "Mortality, tissue damage, or bodyweight change", "setting": "rats [6]", "result": "not observed"}
    ]},
    {"compound": "COc1cc(/C=C/C(=O)CC(=O)/C=C/c2ccc(O)c(OC)c2)ccc1O", "note": "[curcumin]", "values": [
      {"measurement": "time of maximum curcumin uptake", "setting": "HCT-116 cells [7]", "result": 12, "unit": "h"}
    ]}
  ]
}
